The values that follow come from patent US20260306644A1, “ANTIBODY RECRUITING MOLECULES FOR THE TREATMENT OF CORONAVIRUS DISEASE-19” (priority 2023, published 2026).

Several values for one entry are separate records, joined by “and”; a condition that tells them apart may be missing. Equal values may be shown once. Read-outs that look alike come from different tables or passages of the source. Positions of bridges follow the written chain, without caps; N, C: chain ends. Residues, ends and D or L forms follow the SMILES beside them. *: point of attachment. Biotin = O=C1N[C@H]2[C@H](CS[C@H]2CCCCC(=O)*)N1; PEG4 = NCCOCCOCCOCCOCCC(=O)O

Assay [1] concerns Spike RBD coated magnetic beads / RAW 264.7 macrophages. Kind of assay: Antibody-dependent cellular phagocytosis (ADCP), RAW 264.7 macrophages and Spike RBD coated magnetic beads, flow cytometry. Conditions: 37° C., 2 hours, read-out: SARS-COV-2 ADCP EC50. Format: cell-based. On the procedure:
The ability of the compounds to mediate antibody-dependent cellular phagocytosis (ADCP) was assessed using RAW 264.7 macrophages and Spike RBD coated magnetic beads (https://www.acrobiosystems.com/P3194-SARS-CoV-2-Spike-RBD-coupled-Magnetic-Beads.html). Spike RBD coated magnetic beads (3 ul per well) were added to each well of a round bottom 96-well plates. RAW264.7 cells (50,000 cells per well) were added to the beads. Next, the compounds were administered to predetermined final concentrations. The cell-bead mixtures were incubated at 37° C. for 2 hours. The mixtures were then analyzed by flow cytometry.

The target of another assay is SARS-CoV-2 Spike protein (Severe acute respiratory syndrome coronavirus 2, UniProt P0DTC2). Kind of assay: Ternary binding of SARS-CoV-2 Spike protein (293T cells expressing Spike-GFP, IgG-AF647, flow cytometry). Format: cell-based. The settings on record: IgG-AF647 10 μg/ml, repeat values/batches listed separately, read-out: SARS-CoV-2 Ternary binding EC50. (In flow cytometry, cells or beads pass a laser one at a time.)

For assay [2], the target named is T1, SARS-CoV-2 Spike A (wild-type) (Severe acute respiratory syndrome coronavirus 2, UniProt P0DTC2).
T1 construct: purchased Meso Scale Diagnostics, LLC V-PLEX SARS-CoV-2 Panel 13 (ACE2) Kit / Panel 23 (ACE2) Kit
Kind of assay: MSD ACE2 competition assay (inhibition of Spike binding with ACE2, ECL), A (wild-type). Conditions: IC50 Wild Type, Wild Type Spike.

[3] abbreviates: 293T cells expressing Spike-GFP.

With `CC[C@H](C)[C@H](NC(=O)[C@H](CC(C)C)NC(=O)[C@H](CC(=O)O)NC(=O)[C@H](CO)NC(=O)[C@@H](NC(=O)[C@H](CCCNC(=N)N)NC(=O)[C@H](CCSC)NC(=O)[C@H](CO)NC(=O)[C@H](C)NC(=O)[C@H](CCC(=O)O)NC(=O)[C@H](C)NC(=O)[C@H](Cc1c[nH]cn1)NC(=O)CNC(=O)[C@H](CC(C)C)NC(=O)[C@H](CCC(=O)O)NC(=O)[C@H](CC(=O)O)NC(=O)[C@H](CC(C)C)NC(=O)[C@H](CC(C)C)NC(=O)[C@H](CCCNC(=N)N)NC(=O)[C@H](CCSC)NC(=O)[C@@H](NC(=O)[C@H](CCC(=O)O)NC(=O)[C@H](Cc1ccc(O)cc1)NC(=O)[C@@H](NC(=O)[C@H](CCCCN)NC(=O)[C@H](CCC(N)=O)NC(=O)[C@H](CC(C)C)NC(=O)[C@@H](NC(=O)[C@H](Cc1c[nH]c2ccccc12)NC(=O)[C@H](CCC(=O)O)NC(=O)[C@H](CCCCN)NC(=O)[C@H](CC(=O)O)NC(=O)[C@@H](CCC(=O)O)NC(=O)[C@@H]1CSCC(=O)N[C@@H](C)C(=O)N[C@@H](CO)C(=O)N[C@@H](Cc2ccc(O)cc2)C(=O)N[C@@H](Cc2c[nH]cn2)C(=O)N[C@@H](CC(C)C)C(=O)NCC(=O)N[C@@H](CCC(=O)O)C(=O)N[C@@H](CC(C)C)C(=O)N[C@@H](C(C)C)C(=O)N[C@@H](Cc2c[nH]c3ccccc23)C(=O)N2Cc3ccccc3C[C@H]2C(=O)NC(C)(C)C(=O)N1)[C@@H](C)CC)[C@@H](C)CC)[C@@H](C)CC)C(C)C)C(=O)N[C@@H](Cc1ccc(O)cc1)C(=O)N[C@@H](CCC(=O)O)C(=O)N[C@@H](Cc1ccccc1)C(=O)N[C@@H](CCSC)C(=O)N[C@@H](CCCCN)C(=O)N[C@@H](CCCCN)C(=O)NCC(=O)N[C@@H](CC(=O)O)C(=O)N[C@@H](CCC(=O)O)C(=O)N[C@@H](CCCNC(=N)N)C(=O)N[C@@H](CC(C)C)C(=O)N[C@@H](CC(C)C)C(=O)N[C@@H](CCC(=O)O)C(=O)N[C@@H](CCC(=O)O)C(=O)N[C@@H](C)C(=O)N[C@@H](CCC(=O)O)C(=O)N[C@@H](CCCNC(=N)N)C(=O)N[C@@H](CC(C)C)C(=O)N[C@@H](CC(C)C)C(=O)N[C@@H](CCC(=O)O)C(=O)N[C@@H](CCC(=O)O)C(=O)N[C@H](C(=O)N[C@@H](CCC(=O)O)C(=O)N[C@@H](CCCNC(=N)N)C(=O)O)C(C)C` [Compound 130], in assay [1], the EC50 (in general, the concentration that produces a half-maximal response) is 1.3 nM and 1.5 nM.

As for `CC[C@H](C)[C@H](NC(=O)[C@H](CC(C)C)NC(=O)[C@H](CC(=O)O)NC(=O)[C@H](CO)NC(=O)[C@@H]1CSSC[C@H](NC(=O)[C@@H](NC(=O)[C@H](CCC(=O)O)NC(=O)[C@H](Cc2ccc(O)cc2)NC(=O)[C@@H](NC(=O)[C@H](CCCCN)NC(=O)[C@H](CCC(N)=O)NC(=O)[C@H](CC(C)C)NC(=O)[C@@H](NC(=O)[C@H](Cc2c[nH]c3ccccc23)NC(=O)[C@H](CCC(=O)O)NC(=O)[C@H](CCCCN)NC(=O)[C@H](CC(=O)O)NC(=O)CCOCCOCCOCCOCCNC(=O)CCCC[C@@H]2SC[C@@H]3NC(=O)N[C@@H]32)[C@@H](C)CC)[C@@H](C)CC)[C@@H](C)CC)C(=O)N[C@@H](CCCNC(=N)N)C(=O)N[C@@H](CC(C)C)C(=O)N[C@@H](CC(C)C)C(=O)N[C@@H](CC(=O)O)C(=O)N[C@@H](CCC(=O)O)C(=O)N[C@@H](CC(C)C)C(=O)NCC(=O)N[C@@H](Cc2c[nH]cn2)C(=O)N[C@@H](C)C(=O)N[C@@H](CCC(=O)O)C(=O)N[C@@H](C)C(=O)N[C@@H](CO)C(=O)N[C@@H](CCSC)C(=O)N[C@@H](CCCNC(=N)N)C(=O)N1)C(=O)N[C@@H](Cc1ccc(O)cc1)C(=O)N[C@@H](CCC(=O)O)C(=O)N[C@@H](Cc1ccccc1)C(=O)N[C@@H](CCSC)C(=O)N[C@@H](CCCCN)C(=O)N[C@@H](CCCCN)C(=O)NCC(=O)O` [Compound 181] ({Biotin-PEG4}-DKEWILQKIYEICRLLDELGHAEASMRCSDLIYEFMKKG-OH; disulfide 13-28), the concentration giving a half-maximal response (EC50) on SARS-CoV-2 Spike protein (setting [3]) is 0.77 nM and < 0.3 nM; in assay [1], 2.1 nM and 3.1 nM. The half-maximal inhibitory concentration (IC50) – broadly, the concentration that inhibits the measured activity by half – in assay [2] came out at 2.51 nM.

In the case of “Ac-DKEWILQKIYEIMRLLDELGHAEASMRVSDLIYEFMKKGDERLLEEAERLLEEVEREAAAKEAAAKDCAWHLGELVWCT-NH2 (disulfide 68-78) [Compound 146]”, the half-maximal effective concentration (EC50) amounted to 0.02 nM on SARS-CoV-2 Spike protein ([…]) and 0.27 nM in assay [1]. The compound further came in with a 50% inhibitory concentration (IC50) in assay [2] of 1 nM.

On to “Ac-DKEWILQKIYEIMRLLDELGHAEASMRVSDLIYEFMKKGDERLLEEAERLLEEVERGGDCAWHLGELVWCT-NH2 (disulfide 60-70) [Compound 145]”, for which the half-maximal effective concentration (EC50) was determined as 0.04 nM at SARS-CoV-2 Spike protein (setting [3]) and 0.52 nM in assay [1]. Further, the IC50 in assay [2] turned out to be 0.97 nM.

As for “Ac-DKEWILQKIYEIMRLLDELGHAEASMRVSDLIYEFMKKGDERLLEEAERLLEEVERGGGGDCAWHLGELVWCT-NH2 (disulfide 62-72) [Compound 144]”, the EC50 at SARS-CoV-2 Spike protein (setting [3]) is 0.03 nM; in assay [1], 0.61 nM. Further, in assay [2], the IC50 worked out at 1.17 nM.

On to “Ac-DKEWILQKIYEIMRLLDELGHAEASMRVSDLIYEFMKKGDERLLEEAERLLEEVERGGGGGGDCAWHLGELVWCT-NH2 (disulfide 64-74) [Compound 143]”, for which the values for the half-maximal effective concentration (EC50) (at SARS-CoV-2 Spike protein (setting [3]); in assay [1]) were 0.05 nM and 0.75 nM, respectively. In assay [2], this compound came in with a half-inhibitory concentration (IC50) of 1.35 nM.

For the compound “Ac-DKEWILQKIYEIMRLLDELGHAEASMRVSDLIYEFMKKGDERLLEEAERLLEEVERGGGGGGGGDCAWHLGELVWCT-NH2 (disulfide 66-76) [Compound 142]”, the concentration for a half-maximal effect (EC50) at SARS-CoV-2 Spike protein (setting [3]) was 0.05 nM; in assay [1], 0.6 nM. The same compound showed a 50% inhibitory concentration (IC50) in assay [2] of 1.35 nM.

Take “Ac-DKEWILQKIYEIMRLLDELGHAEASMRVSDLIYEFMKKGDERLLEEAERLLEEVERGQAPGQAPDCAWHLGELVWCT-NH2 (disulfide 66-76) [Compound 147]”: the concentration for a half-maximal effect (EC50) on SARS-CoV-2 Spike protein ([…]) stood at 0.02 nM; in assay [1] it was 0.43 nM. In addition, in assay [2], the IC50 was determined as 1.35 nM.

Consider “Ac-DKEWILQKIYEIMRLLDELGHAEASMRVSDLIYEFMKKGDERLLEEAERLLEEVERPASPASPASPASDCAWHLGELVWCT (disulfide 70-80) [Compound 165]”, for which the EC50 is 0.11 nM at SARS-CoV-2 Spike protein ([…]) and 0.07 nM in assay [1]. The compound further gave an IC50 in assay [2] of 0.83 nM.

“DKEWILQKIYEIMRLLDELGHAEASMRVSDLIYEFMKKGDERLLEEAERLLEEVEREAAAKEAAAKDCAWHLGELVWCT-NH2 (disulfide 68-78) [Compound 173]”: the values for the concentration for a half-maximal effect (EC50) (at SARS-CoV-2 Spike protein ([…]); in assay [1]) were 0.04 nM and 0.35 nM, respectively. This compound had a 50% inhibitory concentration (IC50) in assay [2] of 1.21 nM.

“DKEWILQKIYEIMRLLDELGHAEASMRVSDLIYEFMKKGDERLLEEAERLLEEVERGGDCAWHLGELVWCT-NH2 (disulfide 60-70) [Compound 172]”: the concentration giving a half-maximal response (EC50) at SARS-CoV-2 Spike protein (setting [3]) turned out to be 0.02 nM; in assay [1], 0.87 nM. Also, the 50% inhibitory concentration (IC50) in assay [2] amounted to 1.05 nM.

In the case of “DKEWILQKIYEIMRLLDELGHAEASMRVSDLIYEFMKKGDERLLEEAERLLEEVERGGGGDCAWHLGELVWCT-NH2 (disulfide 62-72) [Compound 171]”, the half-maximal effective concentration (EC50) came to 0.01 nM at SARS-CoV-2 Spike protein (setting [3]) and 0.41 nM in assay [1]. In assay [2], this compound yielded an IC50 of 1.25 nM.

Regarding “DKEWILQKIYEIMRLLDELGHAEASMRVSDLIYEFMKKGDERLLEEAERLLEEVERGGGGGGDCAWHLGELVWCT-NH2 (disulfide 64-74) [Compound 170]”, the EC50 is 0.02 nM at SARS-CoV-2 Spike protein (setting [3]) and 0.95 nM in assay [1]. The same compound yielded a concentration for half-maximal inhibition (IC50) in assay [2] of 1.52 nM.

As to “DKEWILQKIYEIMRLLDELGHAEASMRVSDLIYEFMKKGDERLLEEAERLLEEVERGGGGGGGGDCAWHLGELVWCT-NH2 (disulfide 66-76) [Compound 169]”, the EC50 on SARS-CoV-2 Spike protein (setting [3]) was 0.01 nM; in assay [1] it was 0.53 nM. Also, the 50% inhibitory concentration (IC50) in assay [2] was determined as 1.22 nM.

In the case of “DKEWILQKIYEIMRLLDELGHAEASMRVSDLIYEFMKKGDERLLEEAERLLEEVERGQAPGQAPDCAWHLGELVWCT-NH2 (disulfide 66-76) [Compound 174]”, the values for the EC50 (on SARS-CoV-2 Spike protein ([…]); in assay [1]) were 0.14 nM and 0.044 nM, respectively. The IC50 in assay [2] is 1.4 nM.
